Reference: patent US12440497B2, “Compositions and methods for enhancing Wnt signaling for treating cancer” (Massachusetts Institute of Technology, priority 2021, dated 2025)
Where “and” joins values, the source holds several entries; their conditions need not be identical. Equal entries are not always repeated. Entries after “also recorded” stand apart in the source; their conditions may differ. Where two headings read alike, the source gives them in different places.

Experiments:
wildtype colon organoids = test: Wildtype colon organoid growth, resazurin viability assay; assay type: cell-based, Mouse and human; settings: for ranking by on-target vs off-target function in organoids: order: LY2090314, SAR502250, A-1070722, CHIR 99021; for growth of wildtype colon organoids: resazurin assay
Procedure: (§1) Mouse and human organoids were grown in standard organoid culture systems using MATRIGEL® and Advanced DMEM/F12 media with 5% fetal bovine serum, and GLUTAMAX® supplementation. Dose responses of the labeled drugs were applied to the organoid cultures and resazurin viability assays were performed after 4 days of culture. Relative growth is assessed by conversion of resazurin to resorufin and is shown on the y axis.
To further generalize the approach using different GSK3 inhibitors, two other compounds were identified which via GSK3 inhibition, induce Wnt responses in colon organoids. […] Using primary wildtype colon crypts, the capacity of SAR502250 to promote wildtype organoid growth was evaluated using a resazurin metabolic based assay.

Wnt signaling = test: TOP-TdTomato Wnt reporter in wildtype organoids; assay type: cell-based
[1] = tested on: colon cancer organoids (AKPVT); test: AKPVT colon cancer organoid growth, resazurin based assay; assay type: cell-based, mouse; settings: for inhibition of AKPVT colon cancer organoid growth: single agent
Procedure: FIG. 14 is a two-dimensional dose response of RSPO1 by LY2090314 on inhibiting colon cancer organoid growth (AKPVT), assessed by resazurin based assay.
Viability decrease was assessed using a resazurin based metabolic/proliferation assay.

GSK3 = settings: cited from earlier work
[2] = rats; cited from earlier work
[3] = dogs; cited from earlier work
melanoma cell lines = settings: cited from earlier work
[4] = tested on: organoids that harbor an APC mutation; test: Growth of APC-mutant colon cancer organoid genotypes, resazurin assay; assay type: cell-based; settings: at all concentrations; also with added KRAS, p53, SMAD4 mutations
Procedure: as §1
Same as FIG. 1, but the genotype of the organoids tested vary instead of being wildtype, they contain the mutations as indicated in the figure description.

[5] = tested on: Human colon cancers (colon tumor organoid lines); test: Human colon tumor organoid dose response, resazurin; assay type: cell-based; settings: every human colon cancer, 4 days of culture
Procedure: Human colon cancers were collected from the operating room at MGH. Colon tumor organoids lines were generated from the resections and maintained in standard colon organoid culture conditions. Dose responses of LY2090314 were applied to the various human colon cancers and resazurin cell number counts were performed after 4 days of culture.

[6] = humans; cited from earlier work
[7] = in DMSO; cited from earlier work
β-catenin = settings: 20 nM; cited from earlier work
[8] = cited from earlier work
A375 xenograft = settings: 25 mg/kg Q3D, i.v., cited from earlier work
colon cancer organoids = test: LY2090314 together with 5-FU on colon cancer organoids; assay type: cell-based; settings: combination with 5-FU
Text: LY2090314 was used together with 5-FU on colon cancer organoids. […] The cell killing or tumor inhibition effect of LY2090314 is additive with 5-FU. Thus, LY2090314 can be added to many of the existing chemotherapy regimens for colon cancer with improved outcomes.

[9] = Body weight of treated mice; assay type: in vivo; settings: high dose, in one week
Procedure: In humans, the chemotherapy 5-Fluorouracil is a backbone of colon cancer therapy, however, has significant toxic side effects. Mice tolerate a higher dose of 5-Fluorouracil compared to humans on a per weight per day basis. When a high dose of 5-Fluorouracil is administered to mice, they lose 20% of their total weight in one week (FIG. 12A). […] This is in direct contrast to the improved inhibition of tumor burden and treatment effect identified by using the nanoparticle formulation of LY2090314 (FIGS. 5A-5C).

Cn1c(N2CCO[C@@H](c3ccc(F)cc3)C2)nc(-c2ccncn2)cc1=O [SAR502250]
ranking by on-target vs off-target function in organoids (wildtype colon organoids): best drugs in decreasing order of efficacy | growth of wildtype colon organoids (wildtype colon organoids): capacity to grow normal wildtype organoids; also recorded: can independently permit wildtype organoid growth | Wnt response, TOP-TdTomato reporter activity (Wnt signaling): promote a Wnt response | inhibition of AKPVT colon cancer organoid growth [1]: more modest inhibition than LY2090314

Cc1c[nH]c(-c2cnc(NCCNc3ccc(C#N)cn3)nc2-c2ccc(Cl)cc2Cl)n1 [CHIR 99021]
ranking by on-target vs off-target function in organoids (wildtype colon organoids): best drugs in decreasing order of efficacy

O=C1NC(=O)C(c2cnc3ccccn23)=C1c1cn2c3c(cc(F)cc13)CN(C(=O)N1CCCCC1)CC2 [LY2090314]
fold selectivity relative to a large panel of kinases (GSK3): highly selective towards GSK3 | half-life [2]: approximately 0.4 hours | half-life [3]: ~0.7 h | activity in cell lines resistant to PLX4032 (melanoma cell lines): remains active | apoptotic cell death (melanoma cell lines; irrespective of BRAF mutation status): potently induces apoptotic cell death | ranking by on-target vs off-target function in organoids (wildtype colon organoids): best drugs in decreasing order of efficacy | growth of wildtype colon organoids (wildtype colon organoids): potently permits the growth; also recorded: general improvement in growth; also recorded: more potent than SAR502250 | growth of organoids that harbor an APC mutation [4]: inhibited the growth | susceptibility of human colon cancer organoids [5]: showed susceptibility | half-life [6]: 1.8 to 3.4 h | solubility [7]: 31 mg/mL and 60.48 mM | induction of Axin2 (β-catenin): induction of Axin2 | stabilization of β-catenin total protein (β-catenin): time-dependent stabilization | clearance ([8]; approximating hepatic blood flow): high clearance | volume of distribution ([8]; in vivo): 1 to 2 L/kg | Axin2 gene expression in vivo (A375 xenograft): elevates Axin2 gene expression | single agent activity in the A375 xenograft model (A375 xenograft): demonstrates single agent activity | effect on efficacy of DTIC (A375 xenograft; with DTIC): enhances the efficacy of DTIC | cell killing or tumor inhibition effect together with 5-FU (colon cancer organoids): additive | combination effect with a Wnt agonist on tumor organoid growth ([1]; LY2090314 combined with RSPO1): synergistic effect

CN1CCN(S(=O)(=O)c2ccc(-c3cnc(N)c(C(=O)Nc4cccnc4)n3)cc2)CC1 [AZD2858]
growth of wildtype colon organoids (wildtype colon organoids): capacity to grow normal wildtype organoids; also recorded: clear low nanomolar capacity to support normal colon organoid growth | Wnt response, TOP-TdTomato reporter activity (Wnt signaling): promote a Wnt response; also recorded: confirmed to be on target Wnt signaling

O=c1[nH]cc(F)c(=O)[nH]1 [5-Fluorouracil]
loss of total weight [9]: 20%

COc1ccc2c(NC(=O)Nc3cccc(C(F)(F)F)n3)ccnc2c1 [A-1070722]
ranking by on-target vs off-target function in organoids (wildtype colon organoids): best drugs in decreasing order of efficacy

B1: RSPO1: concentrated RSPO1, a Wnt agonist (protein, UniProt Q2MKA7 21-263, looked up)
R-spondin-1: SRGIKGKRQRRISAEGSQACAKGCELCSEVNGCLKCSPKLFILLERNDIRQVGVCLPSCPPGYFDARNPDMNKCIKCKIEHCEACFSHNFCTKCKEGLYLHKGRCYPACPEGSSAANGTMECSSPAQCEMSEWSPWGPCSKKQQLCGFRRGSEERTRRVLHAPVGDHAACSDTKETRRCTVRRVPCPEGQKRRKGGQGRRENANRNLARKESKEAGAGSRRRKGQQQQQQQGTVGPLTSAGPA
reduction in viability of colon cancer organoids ([1]; RSPO1 in the presence of low nanomolar LY2090314): more than 40% | inhibition of AKPVT colon cancer organoid growth [1]: modest effect
